# Source: paper PMC11188305, “Reproductive and fetal toxicity studies of histamine H3 receptor antagonist DL76 used in mice to prevent maximal electroshock-induced seizure” (Frontiers in Pharmacology, 2024)
# Key:
# [1] = system: photosensitivity seizure model; design: method as in Lamb, 2020; settings: adult patients; ref Lamb, 2020; cited from earlier work
# C57BL/6 mice = system: C57BL/6 mice; design: method as in Chateauvieux et al., 2010; settings: ref Chateauvieux et al., 2010; cited from earlier work
# [2] = system: MES-induced seizures in mice; design: method as in Sadek et al., 2015; Bastaki et al., 2018; settings: ref Sadek et al., 2015, Bastaki et al., 2018; cited from earlier work
# [3] = system: MES-induced seizures in mice; assay: Maximal electroshock (MES)-induced seizure, duration of tonic hind limb extension (THLE); type: in vivo, C57BL/6J mice
# Source text: As previously described and with a slight modification in the intensity applied, seizures were elicited in mice with a 50-Hz alternating current of 120 mA intensity ([Kaminski et al., 2015]; [Song et al., 2020]; [Xiao et al., 2021]; [Hua et al., 2023]). The current was applied through ear electrodes for 0.2 s. Protection against the spread of MES-induced convulsion was defined as the abolition of the tonic hind limb extension (THLE) component of the seizure ([Kaminski et al., 2015]; [Song et al., 2020]; [Xiao et al., 2021]; [Hua et al., 2023]). The animals were divided into the following experimental groups, with eight mice in each: the control group injected with saline, the positive control group injected with 300 mg/kg of VPA (the minimal dose of VPA that protected animals against the spread of MES-induced convulsions without mortality in mice) ([Sadek et al., 2015]; [Bastaki et al., 2018]), and four groups that were administered the test compound DL76 at doses of 7.5 mg/kg, 15 mg/kg, 30 mg/kg, or 60 mg/kg. All drugs were administered 30–45 min before the MES challenge. In a further group of eight mice, the most promising and protective dose of DL76 (60 mg/kg, i.p.) was co-injected with RAM (10 mg/kg, i.p.), 30 min apart and 15 min prior to the MES test. Protection against the spread of MES-induced convulsion was defined as the abolition of the THLE component of the convulsion ([Sadek et al., 2015]; [Alachkar et al., 2018]; [Bastaki et al., 2018]).
# Statistical analyses employed SPSS 26.0 (IBM Middle East, Dubai, UAE). Data were presented as means ± SEM. […] Fetal abnormality data were presented as counts and percentages. Fisher’s exact test compared the percentages of abnormalities between the control group (saline) and the different dose groups. All tests were two-tailed, and significance was set at p < 0.05.
# [4] = system: experimental seizure models; design: method as in earlier work; settings: acute and chronic experimental seizure models; ref Brown et al., 2001; Vohora et al., 2010; Witkin and Nelson, 2004; Sadek et al., 2015; Bastaki et al., 2018; cited from earlier work
structure (smiles),measurement,setting,value
Clc1ccc(CCCOCCCN2CCCCC2)cc1 [PIT],effects against the photosensitivity seizure model,[1],protective effects
"CCCC(CCC)C(=O)O [VPA, valproic acid, reference compound]",malformations,C57BL/6 mice,induce malformations
same,minimal dose that protected animals against the spread of MES-induced convulsions without mortality,[2],300 mg/kg
same,difference of protective effects between male and female mice,"[3]; VPA 300 mg/kg i.p., p = 0.164",no significant differences
same,protection against MES-induced convulsions,"[3]; female adult mice, VPA 300 mg/kg i.p.",significantly protected
"C[C@@H](N)Cc1c[nH]cn1 [RAM, (R)-α-methylhistamine, reference compound]",effect of RAM alone on MES-induced convulsions,"[3]; female adult mice, RAM 10 mg/kg i.p., p = 0.91 saline-saline vs. saline-RAM",results similar to those witnessed in male adult mice
same,effect on MES-induced convulsions when injected alone,"[3]; male adult mice, RAM 10 mg/kg i.p., p = 0.602",did not affect MES-induced convulsions
same,activity of RAM injected alone in MES-induced convulsion,"[3]; mice, both sexes, RAM 10 mg/kg",neither a protective nor an epileptogenic activity
S=C(NC1CCCCC1)N1CCC(c2cnc[nH]2)CC1 [thioperamide],anticonvulsant efficacy,[4],anticonvulsant efficacy
CCC(C)(C)c1ccc(OCCCN2CCCCC2)cc1 [DL77],anticonvulsant efficacy,[4],anticonvulsant efficacy
